Results from patent US6022851A, “Lantibiotic related to actagardine, and processes for the preparation and use thereof” (priority 1997, dated 2000).
Read-outs that look alike come from different tables or passages of the source.

How the values were obtained:
[1] = Solubility; type: physicochemical; conditions: in methanol and water
[2] = Tolerability / toxicity
[3] = Stability in solution; type: physicochemical
[4] = system: E. Coli; type: cell-based; conditions: incubation time 24 h
From the text: (§1) Tables 4 to 6 show the in-vitro antibacterial activity (MIC values[μg/ml]) of the actagardine (Acta) and of the compounds according to the invention.

[5] = system: S. aureus SG511; type: cell-based; conditions: incubation time 24 h
From the text: as §1

[6] = system: S. aureus Exp54146; type: cell-based; conditions: incubation time 24 h
From the text: as §1

[7] = system: S. pyogenes A561; type: cell-based; conditions: incubation time 24 h
From the text: as §1

[8] = system: S. pneumoniae 030BI2; assay: in-vitro antibacterial activity (MIC), incubation time 18 h; type: cell-based; conditions: incubation time 18 h
From the text: as §1

[9] = system: S. epidermidis 012GO42; assay: as above; type: cell-based; conditions: incubation time 18 h
From the text: as §1

[10] = system: S. aureus 011HT3; assay: as above; type: cell-based; conditions: incubation time 18 h
From the text: as §1

[11] = system: E. faecalis 02D2HM9; assay: as above; type: cell-based; conditions: incubation time 18 h
From the text: as §1

[12] = system: S. pyogenes 02A1UC1; assay: as above; type: cell-based; conditions: incubation time 18 h
From the text: as §1

[13] = system: S. aureus 011HT18; assay: as above; type: cell-based; conditions: incubation time 18 h
From the text: as §1

[14] = system: S. aureus 0121O64; assay: as above; type: cell-based; conditions: incubation time 18 h
From the text: as §1

[15] = system: S. aureus 011DU5; assay: as above; type: cell-based; conditions: incubation time 18 h
From the text: as §1

[16] = system: Staph. coag. negative 012HT5; assay: as above; type: cell-based; conditions: incubation time 18 h
From the text: as §1

[17] = system: S. epidermidis 012GO20; assay: as above; type: cell-based; conditions: incubation time 18 h
From the text: as §1

[18] = system: E. faecalis 02D2UC5; assay: as above; type: cell-based; conditions: incubation time 18 h
From the text: as §1

[19] = system: E. faecalis 02D2HT10; assay: as above; type: cell-based; conditions: incubation time 18 h
From the text: as §1

[20] = system: S. aureus 011HT1; assay: as above; type: cell-based; conditions: incubation time 18 h
From the text: as §1

[21] = system: S. pyogenes O2A1SJ1; assay: as above; type: cell-based; conditions: incubation time 18 h
From the text: as §1

[22] = system: E. faecalis 02D2DU18; assay: as above; type: cell-based; conditions: incubation time 18 h
From the text: as §1

[23] = system: S. pyogenes 02A1FI6; assay: as above; type: cell-based; conditions: incubation time 18 h
From the text: as §1

[24] = system: S. mitis 02mitGR16; assay: as above; type: cell-based; conditions: incubation time 18 h
From the text: as §1

[25] = system: S. milleri 02milGR12; assay: as above; type: cell-based; conditions: incubation time 18 h
From the text: as §1

[26] = system: Strepto gr. G 02G0CB2; assay: as above; type: cell-based; conditions: incubation time 18 h
From the text: as §1

In the case of `CC[C@H](C)[C@@H]1NC(=O)C2NC(=O)[C@H](CC(C)C)NC(=O)C(NC(=O)C3CSCC(NC(=O)[C@H](C)N)C(=O)N[C@@H](CO)C(=O)NCC(=O)N[C@@H](Cc4c[nH]c5ccccc45)C(=O)N[C@@H](C(C)C)C(=O)N3)C(C)SCC(NC(=O)[C@H](CCC(=O)O)NC1=O)C(=O)NCC(=O)NC1C(=O)N[C@@H](C(C)C)C(=O)N[C@@H]([C@@H](C)CC)C(=O)NC(CSC2C)C(=O)N[C@@H](C)C(=O)NC(C(=O)O)C[S+]([O-])C1C` (stereo partly shown) [Ala(0)-actagardine], the solubility [1] is reported as “soluble”, the “cytotoxic actions or other toxicities” value [2] is reported as “not observed” and the tolerability ([2]; at the active concentration and above) is reported as “good”. The stability ([3]; in neutral and mildly alkaline medium) was “Stable” and the stability ([3]; in strongly acidic and strongly alkaline solution) was “unstable”.

In the case of “di-Boc-Lys(0)-actagardine [Boc--Lys--Acta]”, the MIC values [4] is reported as over 40 µg/mL, the MIC values ([5]; S. aureus SG511 + 10% serum) is reported as 10 µg/mL and the MIC values ([5]; S. aureus SG511) is reported as 2.5 µg/mL. For the same compound, the MIC values [6] was 10 µg/mL, the MIC values [7] was “<= 0.04 μg/ml” and the MIC values [8] was 1.2 µg/mL. It also gave an MIC values [9] of over 40 µg/mL, an MIC values ([10]; S. aureus 011HT3 + 10% serum) of 20 µg/mL and an MIC values ([10]; S. aureus 011HT3 + 50% serum) of 40 µg/mL. For the same compound, the MIC values ([10]; S. aureus 011HT3) was 10 µg/mL, the MIC values [11] was over 40 µg/mL and the MIC values [12] was “<= 0.04 μg/ml”. For the same compound, the MIC values [13] was over 40 µg/mL, the MIC values [14] was over 40 µg/mL and the MIC values [15] was 40 µg/mL. The MIC values [16] was over 40 µg/mL, the MIC values [17] was over 40 µg/mL and the MIC values [18] was 40 µg/mL. It also gave an MIC values [19] of over 40 µg/mL, an MIC values [20] of 10 µg/mL and an MIC values [21] of 0.08 µg/mL. The MIC values [22] was 10 µg/mL, the MIC values [23] was “<= 0.04 μg/ml” and the MIC values [24] was 5 µg/mL. It also gave an MIC values [25] of 5 µg/mL and an MIC values [26] of 2.5 µg/mL.
